Measurements from US20250051825A1, “Ex Vivo Production of Compounds of Interest” (Nederlandse Organisatie voor …, priority 2021, published 2025).

Key:
[1] = system: perfused porcine liver; experiment: Midazolam continuous portal administration to ex vivo perfused porcine liver, metabolite quantified by UPLC/MS
[2] = system: perfused porcine liver; experiment: Atorvastatin normothermic machine perfusion of ex vivo porcine liver, perfusate and bile analysed by LC/MS; type: in vitro ADME, Sus scrofa domesticus; details: for % billiary clearance (metabolite abundance as percentage of given Atorvastatin dose): 0-120 min, Atorva alone, 0.104 mg atorvastatin to portal vein, bile, n = 1
Experimental: Porcine Livers. Livers were obtained from a local slaughterhouse (Sus scrofa domesticus, approximately at the age of 6 months, with body weight between 100 and 120 kg). Pigs were sacrificed by a standardized procedure of electrocution followed by exsanguination. Thereafter, 3 L of blood was collected in a container supplemented with 25,000 IU of heparin. All abdominal organs were dissected outside the animal and collected. Within 20 minutes after termination, the vena porta was cannulated and directly flushed by gravity with 3 L of NaCl 0.9% (Baxter BV, Utrecht, The Netherlands) supplemented with 5000 IU of heparin followed by 2 L of ice-cold histidine-tryptophan-ketoglutarate solution (Plegistore, Warszawa, Poland). In the meantime, the arteria hepatica was dissected, cannulated, and subsequently flushed with histidine-tryptophan-ketoglutarate. At the laboratory, side branches were ligated, and the common bile duct was cannulated, whereas the ductus cysticus, derived from the gall bladder, was ligated. Normothermic Machine Perfusion. The porcine livers were perfused using the LiverAssist device (XVIVO, Groningen, The Netherlands). The machine consists of two rotary pumps that provide a pulsatile flow to the hepatic artery and a continuous flow to the portal vein. The system was filled with 2 L perfusion fluid containing red blood cells and perfusate (Table 2). […] Additionally, amino acids and vitamins were continuously provided to keep the liver metabolically active. Gas delivery to the LiverAssist consisted of 95% oxygen and 5% carbon dioxide at 2 L/min, and the temperature was set at 39 C (body temperature pigs). […] Arterial blood gas samples were taken hourly to monitor liver viability (PH, glucose, Na, K, lactate, etc.) using the i-STAT clinical analyzer (Abbot Point of Care Inc., Princeton, NJ). […] Time of starting the slow bolus was set at t=0 min. […] Drug concentrations in perfusate, bile and liver biopsies were determined by LC-MS/MS analysis as described below. […] Briefly, 20 μL of sample was extracted by adding 100 μL of acetonitrile containing internal standard. […] Samples were then mixed with 50 μL of water, vortexed and injected in to LC/MS for quantification. The mass spectrometer (AB Sciex API 5500) was operated in electrospray positive ion mode with the capillary voltage of 5.5 kV and Spray temperature of 550° C. The multiple reaction monitoring transitions used for all the compounds are shown table 4.

[3] = 240 min of perfusion, input of 49.8 mg midazolam
[4] = from 40 mg midazolam (as summarised in description)

SMILES: O=C(O)[C@H]1O[C@@H](OCc2ncc3n2-c2ccc(Cl)cc2C(c2ccccc2F)=NC3)[C@H](O)[C@@H](O)[C@@H]1O [1-OH midazolam glucuronide, midazolam 1′O-glucuronide]
- presence in perfusate (chromatogram) ([1]; 240 min after starting the portal administration of midazolam): (abundant) presence
- Yield 1-OH midazolam glucuronide, Bile [1, 3]: 0.254 mg
- Yield 1-OH midazolam glucuronide, Perfusate [1, 3]: 1.19 mg
- Yield 1-OH midazolam glucuronide, Tissue [1, 3]: 1.891 mg
- Yield 1-OH midazolam glucuronide, Total ([1]; 240 min of perfusion, input of 49.8 mg midazolam, sum of perfusate, bile, tissue): 3.33 mg 1-OH midazolam glucuronide
- metabolite obtained from liver tissue [1, 4]: 2 mg
- metabolite obtained from plasma and bile [1, 4]: 1.5 mg
- total metabolite produced [1, 4]: 3.5 mg

SMILES: CC(C)c1c(C(=O)Nc2ccccc2O)c(-c2ccccc2)c(-c2ccc(F)cc2)n1CCC1CC(O)CC(=O)O1 (stereo not drawn) [2-hydroxy atorva lactone, 2-hydroxy atorvastatin lactone]
- % billiary clearance (metabolite abundance as percentage of given Atorvastatin dose) [2]: 3.48%

SMILES: CC(C)c1c(C(=O)Nc2ccccc2O)c(-c2ccccc2)c(-c2ccc(F)cc2)n1CCC(O)CC(O)CC(=O)O (stereo not drawn) [2-hydroxy atorva, 2-hydroxy atorvastatin]
- % billiary clearance (metabolite abundance as percentage of given Atorvastatin dose) [2]: 5.33%

SMILES: CC(C)c1c(C(=O)Nc2ccc(O)cc2)c(-c2ccccc2)c(-c2ccc(F)cc2)n1CCC1CC(O)CC(=O)O1 (stereo not drawn) [4-hydroxy atorva lactone, 4-hydroxy atorvastatin lactone]
- % billiary clearance (metabolite abundance as percentage of given Atorvastatin dose) [2]: 0.400%

SMILES: CC(C)c1c(C(=O)Nc2ccc(O)cc2)c(-c2ccccc2)c(-c2ccc(F)cc2)n1CC[C@@H](O)C[C@@H](O)CC(=O)O [4-hydroxy atorva, 4-hydroxy atorvastatin]
- % billiary clearance (metabolite abundance as percentage of given Atorvastatin dose) [2]: 10.28%

SMILES: CC(C)c1c(C(=O)Nc2ccccc2)c(-c2ccccc2)c(-c2ccc(F)cc2)n1CC[C@@H]1C[C@@H](O)CC(=O)O1 [Atorvastatin lactone]
- % billiary clearance (metabolite abundance as percentage of given Atorvastatin dose) [2]: 9.17%

SMILES: CC(C)c1c(C(=O)Nc2ccccc2)c(-c2ccccc2)c(-c2ccc(F)cc2)n1CC[C@@H](O)C[C@@H](O)CC(=O)O [atorvastatin, Atorvastatin, reference compound]
- time until atorvastatin was detected in the bile ([2]; after the start of the bolus administration, slow bolus of 0.104 mg over 10 minutes to portal vein): ≤ 10 min
- parent compound secreted into the bile ([2]; within 120 min of perfusion, 0.104 mg to portal vein): 13.0±5.6%
